Assay results as given in US20260199323A1, “LIGAND COMPOUNDS FOR E3 UBIQUITIN LIGASE, PROTEIN DEGRADERS DEVELOPED ON BASIS OF LIGAND COMPOUNDS, AND USES THEREOF” (GLUETACS THERAPEUTICS (SHANGHAI) CO., LTD., priority 2021, published 2026).
Where two headings read alike, the source gives them in different places.

Legend:
MV-4-11 = assay: CCK-8 tumor cell proliferation, MV-4-11; format: cell-based, Human; conditions: Homo sapiens, MV4-11; Table 19, IRAK4 inhibitor based; MV-4-11; read-out: IC50 inhibiting proliferation of tumor cells, MV-4-11
Procedure: (§1) The tumor cells used herein were cultured in a cell culture medium listed in table 4 at 37° C. in an incubator with 5% CO2. Prior to experimentation, all cells used were correctly identified by STR profiling, and tested negative for mycoplasma through routine screenings.
(§2) IC50 values of the compounds of the present disclosure (including the compounds in Tables 1 and 3, and compounds of examples) were measured using the Meilun Cell Counting Kit-8 kit from Dalian Meilun Biotech Co., Ltd. Assay details are as follows: tumor cells were seeded in a 96-well plate at a density listed in Table 5. After 24 h, 100 μL of the inoculated cells were treated with 0.5 μL of the compounds of the present disclosure (including the compounds in Tables 1 and 3, and compounds of examples) at 10 different successively decreasing concentrations (starting at the highest concentration of 10 μM; 5-fold serial dilutions). After the cells were treated with the compounds of the present disclosure for a period of time, the cell viability detection reagent was added to the culture medium for cell viability assessment according to the instructions provided with the CCK-8 kit. […] The growth inhibition of the compounds of the present disclosure on cells was plotted by Prism Graphpad software, and the IC50 values of the compounds of the present disclosure were calculated therefrom.

Jurkat = assay: CCK-8 tumor cell proliferation, Jurkat; format: cell-based, Human; conditions: Homo sapiens
Procedure: as §1, §2

MM.1R = assay: CCK-8 tumor cell proliferation, MM.1R; format: cell-based
Procedure: as §1, §2

CAL-62 = assay: CCK-8 tumor cell proliferation, CAL-62; format: cell-based, Human; conditions: Homo sapiens, CAL-62
How it was run: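 Authenticated cells, kept at 37 °C and 5% CO2, were given compound a day after plating; doses spanned 10 levels in 5-fold decrements from 10 μM. IC50 values come from CCK-8 viability readings.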

[1] = Table 23, compared to Comparative Example compounds, read-out: Inhibitory activity (IC50, nM) against tumor cell proliferation, Jurkat
[2] = Table 23, compared to Comparative Example compounds, read-out: Inhibitory activity (IC50, nM) against tumor cell proliferation, MM.1R
[3] = Table 23, compared to Comparative Example compounds, read-out: Inhibitory activity (IC50, nM) against tumor cell proliferation, CAL-62

Row | SMILES | IC50 (MV-4-11) [µM] | IC50 (Jurkat; [1]) [nM] | IC50 (MM.1R; [2]) [nM] | IC50 (CAL-62; [3]) [nM] | further results
1 | Cc1cc(-c2nc(C(=O)Nc3cc4oc(N5CCN(Cc6ccc7c(c6F)CN(C6CCC(=O)NC6=O)C7=O)CC5)nc4nc3N3CC[C@@H](O)C3)co2)ccn1 (stereo partly drawn) [GT-03841, N-(2-(4-((2-(2,6-dioxopiperidin-3-yl)-4-fluoro-1-oxoisoindolin-5-yl)methyl)piperazin-1-yl)-5-((R)-3-hydroxypyrrolidin-1-yl)oxazolo[4,5-b]pyridin-6-yl)-2-(2-methylpyridin-4-yl)oxazole-4-carboxamide] | 0.1 to 0.5 |  |  |  | 
2 | Cc1cc(-c2nc(C(=O)Nc3cc4oc(N5CCN(Cc6cc7c(cc6F)C(=O)N(C6CCC(=O)NC6=O)C7)CC5)nc4nc3N3CC[C@@H](O)C3)co2)ccn1 (stereo partly drawn) [GT-03842, N-(2-(4-((2-(2,6-dioxopiperidin-3-yl)-6-fluoro-1-oxoisoindolin-5-yl)methyl)piperazin-1-yl)-5-((R)-3-hydroxypyrrolidin-1-yl)oxazolo[4,5-b]pyridin-6-yl)-2-(2-methylpyridin-4-yl)oxazole-4-carboxamide] | 0.1 to 0.5 |  |  |  | 
3 | Cc1cc(-c2nc(C(=O)Nc3cc4oc(N5CCN(Cc6cccc7c6CN(C6CCC(=O)NC6=O)C7=O)CC5)nc4nc3N3CC[C@@H](O)C3)co2)ccn1 (stereo partly drawn) [GT-03844, N-(2-(4-((2-(2,6-dioxopiperidin-3-yl)-1-oxoisoindolin-4-yl)methyl)piperazin-1-yl)-5-((R)-3-hydroxypyrrolidin-1-yl)oxazolo[4,5-b]pyridin-6-yl)-2-(2-methylpyridin-4-yl)oxazole-4-carboxamide] | 0.1 to 0.5 |  |  |  | 
4 | CC(C)(O)c1cc2nc(C3CCN(Cc4cc5c(cc4F)C(=O)N(C4CCC(=O)NC4=O)C5)CC3)oc2cc1NC(=O)c1cccc(C(F)(F)F)n1 (stereo not drawn) [GT-04519, N-(2-(1-((2-(2,6-dioxopiperidin-3-yl)-6-fluoro-1-oxoisoindolin-5-yl)methyl)piperidin-4-yl)-5-(2-hydroxypropan-2-yl)benzo[d]oxazol-6-yl)-6-(trifluoromethyl)picolinamide] |  |  |  |  | IC50 (Jurkat; Table 19, IRAK4 inhibitor based, read-out: IC50 inhibiting proliferation of tumor cells, Jurkat): < 50 nM; IC50 (MM.1R; Table 19, IRAK4 inhibitor based, read-out: IC50 inhibiting proliferation of tumor cells, MM.1R): < 50 nM; IC50 (CAL-62; Table 19, IRAK4 inhibitor based, read-out: IC50 inhibiting proliferation of tumor cells, CAL-62): < 50 nM

Now from value to compound, other results behind:

Row | IC50 (MV-4-11) [µM] | IC50 (Jurkat; [1]) [nM] | IC50 (MM.1R; [2]) [nM] | IC50 (CAL-62; [3]) [nM] | SMILES | further results
5 |  | 100 to 500 | 5000 to 10000 | 1000 to 5000 | O=C1CCC(N2Cc3cc(CCN4CCN(c5ccc([C@@H]6c7ccc(O)cc7CC[C@@H]6c6ccccc6)cc5)CC4)ccc3C2=O)C(=O)N1 (stereo partly drawn) [GT-04562, 3-(5-(2-(4-(4-((1R,2S)-6-hydroxy-2-phenyl-1,2,3,4-tetrahydronaphthalen-1-yl)phenyl)piperazin-1-yl)ethyl)-1-oxoisoindolin-2-yl)piperidine-2,6-dione] | 
6 |  | 1000 to 5000 | < 50 | 5000 to 10000 | Nc1ncnc2c1c(-c1ccc(Oc3ccccc3)cc1)nn2C1CCN(CCc2ccc3c(c2)CN(C2CCC(=O)NC2=O)C3=O)CC1 (stereo not drawn) [GT-04563, 3-(5-(2-(4-(4-amino-3-(4-phenoxyphenyl)-1H-pyrazolo[3,4-d]pyrimidin-1-yl)piperidin-1-yl)ethyl)-1-oxoisoindolin-2-yl)piperidine-2,6-dione] | 
7 |  | 100 to 500 | 1000 to 5000 | 1000 to 5000 | O=C1CCC(N2Cc3cc(CCCN4CCN(c5ccc([C@@H]6c7ccc(O)cc7CC[C@@H]6c6ccccc6)cc5)CC4)ccc3C2=O)C(=O)N1 (stereo partly drawn) [GT-04564, 3-(5-(3-(4-(4-((1R,2S)-6-hydroxy-2-phenyl-1,2,3,4-tetrahydronaphthalen-1-yl)phenyl)piperazin-1-yl)propyl)-1-oxoisoindolin-2-yl)piperidine-2,6-dione] | 
8 |  | 5000 to 10000 |  |  | Nc1ncnc2c1c(-c1ccc(Oc3ccccc3)cc1)nn2C1CCN(CCCc2ccc3c(c2)CN(C2CCC(=O)NC2=O)C3=O)CC1 (stereo not drawn) [GT-04565, 3-(5-(3-(4-(4-amino-3-(4-phenoxyphenyl)-1H-pyrazolo[3,4-d]pyrimidin-1-yl)piperidin-1-yl)propyl)-1-oxoisoindolin-2-yl)piperidine-2,6-dione] | IC50 (MM.1R; Table 23, given as number, read-out: Inhibitory activity (IC50, nM) against tumor cell proliferation, MM.1R): > 10000 nM; IC50 (CAL-62; Table 23, given as number, read-out: Inhibitory activity (IC50, nM) against tumor cell proliferation, CAL-62): > 10000 nM
